Key:
Format in all cases: cell-based
[1] = tested on: cellular response to IFN-α; test: ISRE-Luc reporter assay: amplification of cellular response to IFN-α; conditions: for amplification of cellular response to IFN-α: HEK-293 ISRE-Luc (STING 37 cell line); for amplification of cellular response to IFN-α / pEC50 / EC50: IFN-α 150 IU/mL; for pEC50 / EC50: ISRE-Luc reporter cells, dose-response 0.8 to 150 µM, luciferase after 24 h, pEC50<3.8 = inactive
Description: Cells were cultured at 37°C and 5% CO2 in Dulbecco's modified Eagle's Medium (DMEM; Sigma-Aldrich) containing 10% fetal calf serum (FCS), penicillin and streptomycin. Experiments were performed on HEK-293 cells stably transfected with the ISRE-Luciferase reporter gene (ISRE-Luc), with or without NanoLuc as an additional reporter gene (Lucas-Hourani et al., 2013; Hayek et al., 2019).
Reporter cells were incubated with increasing concentrations of candidates DHODH inhibitors diluted in DMSO in the presence or not of recombinant IFN-α (150 IU/mL). Recombinant IFN-α was from Sigma-Aldrich or PBL Assay Science. Luciferase activity was quantified 24 h later.
To confirm that modulation of IFN-α is related to DHDOH inhibition by compounds of the invention, the same experiments were performed by adding either uridine (pyrimidine derivated nucleoside), dihydroorotate (DHO, the substrate od DHODH in pyrimidine de novo biosynthesis pathway) or orotate (the product of ubiquinone-mediated oxidation of DHO catalysed by DHODH) together with compound of the invention. uridine, orotate, and DHO are all from Sigma Aldrich.
Firefly luciferase expression in culture wells was measured using the Bright-Glo (Promega) or Britelite plus reagents (PerkinElmer), according to the manufacturer's recommendations. For each concentration, three independent experiments were performed.
Compounds were tested for their ability to boost cellular response to IFN-α using ISRE-Luc reporter cells.

[2] = tested on: de novo pyrimidine biosynthesis; test: Purine (G/A) and pyrimidine (C/U) quantification by HPLC-coupled spectrophotometry in HEK-293 cells; conditions: 24 h, 5, 10 or 20 µg/mL
Description: Cells were cultured at 37°C and 5% CO2 in Dulbecco's modified Eagle's Medium (DMEM; Sigma-Aldrich) containing 10% fetal calf serum (FCS), penicillin and streptomycin. Nucleoside/nucleotide quantification in HEK-293 cells was performed as previously described in by Lucas-Hourani et al. (2017). Briefly, cells were plated in 6-well plates at 1x10^6 cells per well and after 24 h, several concentrations of compounds of the invention (diluted in DMSO) or DMSO alone was added.
One day later, cells were washed with PBS and cellular pellets were deproteinized by adding an equal volume of 6% perchloric acid. After 10 min of incubation on ice and clearing of the extracts by centrifugation (13,000 rpm for 10 min at 4°C), supernatants were supplemented with bidistilled water (V/V) and neutralized by the addition of 2 M Na2CO3. Extracts were analyzed by HPLC onto a C18 Supelco 5-µm (250 by 4.6 mm) column (Sigma) at 45°C using a mobile phase delivered at a flow rate of 1 mL/min. Buffer A contained 10 mM tetrabutylammonium hydroxide, 10 mM KH2PO4, and 0.25% MeOH and was adjusted to pH 6.9 with 1 M HCl. Buffer B contained 5.6 mM tetrabutylammonium hydroxide, 50 mM KH2PO4, and 30% MeOH and was neutralized to pH 7.0 with 1 M NaOH. […] Products were monitored spectrophotometrically at 254 nm with a diode array detector (PDA) and quantified by integration of the peak absorbance area. […]

[3] = tested on: cellular response to IFN-γ; test: ISRE-Luc reporter assay: amplification of cellular response to type II IFN; conditions: HEK-293 ISRE-Luc, compound 80 µM, recombinant IFN-γ
Description: Reporter system, cell culture and luciferase assay are performed as exposed above. HEK-293 cells with the ISRE-Luc reporter gene were treated with DMSO or compounds of the invention in the absence or presence of recombinant IFN-γ (Figure 4A; Roussel Uclaf or Milteny Biotech, 150 IU/mL).
(§1) The same experiment was performed but using different dilutions ranging from 1/8 to 1/64 of conditioned supernatants from activated PBMCs, instead of recombinant IFN-γ. Human peripheral blood mononuclear cells (PBMC) from one healthy donor were isolated by density centrifugation with Lymphoprep medium (StemCell Technologies) from leucocytes concentrates obtained when plateletpheresis was performed (Etablissement Français du Sang; Paris; France). To activate PBMCs, cells were treated for 24 h with the TLR7/8 ligand R848 at 5 µg/mL (Sigma Aldrich) and supernatants were harvested. R848 is known to induce expression of several cytokines, within which IFN-γ which is found at high levels in PBMC supernatants in comparison with type I IFNs (Table 4). Table 4. Cytokine expression levels in culture supernatants of human PBMC activated with R848.

[4] = tested on: HEK-293 cells; test: Cell viability / proliferation assay (CellTiter-Glo); conditions: 24, 48 and 72 h of culture
Description: Cells were treated with DMSO or compounds of the invention at different concentrations, and the number of viable cells was determined using the CellTiter-Glo reagent after 24, 48 and 72 h of culture. Cellular viability was determined by quantification of ATP in culture wells using the CellTiter-Glo assay (Promega).
Two independent experiments were performed. Results were analyzed using one-way analysis of variance (ANOVA) with Bonferroni's post hoc test.

[5] = tested on: human PBMC; test: Cytokine expression levels in culture supernatants of PBMC activated with R848; conditions: PBMC + R848 5 µg/mL, 24 h, supernatant
Description: as §1

With “5'-cyclopropyl-3'H-spiro[cyclohexane-1,1'-furo[3,4-c]pyridine]-3',4(5'H)-dione [Compound 2]” the “amplification of cellular response to IFN-α” value [1] was “amplified”, the pEC50 [1] was 4.4 and the “reversal of amplification of response to IFN-α by uridine, orotate or DHO” value ([1]; compound 80 µM, uridine 125 µM, DHO 3 mM, orotate 3 mM) was “reversed by orotate but not DHO”. For the same compound, the “Pyrimidine (U and C) levels” value [2] was “drop of pyrimidine cellular concentration”, the “Amplification of response to IFN type II” value [3] was “Amplification of response to IFN type II” and the “proliferation of HEK-293 cells (number of viable cells)” value [4] was “prevent cell proliferation”.
Compound “5'-cyclopropyl-3'H-spiro[cyclopentane-1,1'-furo[3,4-c]pyridine]-3',4(5'H)-dione [Compound 1]” has a pEC50 [1] of 4.3.
For `CC1(c2ccccc2)OC(=O)c2c1ccn(C1CC1)c2=O` (stereo not shown) [Compound 3, 5-cyclopropyl-1-methyl-1-phenylfuro[3,4-c]pyridine-3,4(1H,5H)-dione], the “amplification of cellular response to IFN-α” value [1] was “amplified” and the EC50 [1] was 25.1 µM.
In the case of `CC1(CCc2ccccc2)OC(=O)c2c1ccn(C1CC1)c2=O` (stereo not shown) [Compound 4, 5-cyclopropyl-1-methyl-1-phenethylfuro[3,4-c]pyridine-3,4(1H,5H)-dione], the EC50 [1] is reported as 6.31 µM.
With `CCOCc1nc2c(N)nc3ccccc3c2n1CC(C)(C)O` [Compound R848] the GM-CSF [5] was 0.043 ng/mL, the IFN-α2 [5] was 0.097 ng/mL and the IFN-β [5] was 0.015 ng/mL. It also gave an IFN-γ [5] of 4.2 ng/mL, an IFN-λ1 [5] of 0.016 ng/mL and an IL-1β [5] of 12 ng/mL. It also gave an IL-6 [5] of 65 ng/mL, an IL-8 [5] of 214 ng/mL and an IL-10 [5] of 0.283 ng/mL. For the same compound, the IL-12p70 [5] was 0.009 ng/mL, the IP10 [5] was 0.028 ng/mL and the TNF-α [5] was 11 ng/mL.

— EP3750892A1, “NOVEL 5-CYCLOPROPYL-FURO[3,4-C]PYRIDINE-3,4(1H,5H)-DIONE 1,1' SUBSTITUTED DERIVATIVES AND THEIR USES” (Yerevan State University, priority 2019, dated 2020)
